{
  "source": "patent US12329753B2",
  "about": "“Phosphodiesterase inhibitor treatment” (Cyrano Therapeutics, Inc., priority 2008, dated 2025)",
  "tested_on": "asthmatic patients",
  "experiment": "sGaw after inhaled dry powder in asthmatic patients, single blind study (Examples 5, 6)",
  "assay_type": "in vivo, human",
  "conditions": "dry powder 1 mg inhaled",
  "method": "To test this theory, asthmatic patients are enrolled in a dose escalating single blind study. On arrival to the clinic, subjects are allowed to rest for 20 minutes before baseline measurements of FEV1 (six recordings) and sGaw (five recordings) are made. Subjects receive a dry powder dispenser loaded with a dose of 2 mg theophylline or a dry powder carrier. […] After each inhalation, measurements of sGaw are made at 1, 3, 5, 10, 15, 20, 25, and 30 minutes.\nOn completion of the last recording, subjects inhale a 200 μg dose of salbutamol from a metered inhaler and a further measurement of sGaw is made after 15 minutes. Subjects are also monitored for coughing and are questioned about the taste of the drug.\nAsthmatic patients are enrolled in a dose escalating single blind study. On arrival to the clinic, subjects are allowed to rest for 20 minutes before baseline measurements of FEV1 (six recordings) and sGaw (five recordings) are made. Subjects receive a dry powder dispenser loaded with a dose of 1 mg IBMX formulated as a dry powder or a dry powder carrier. […] After each inhalation, measurements of sGaw are made at 1, 3, 5, 10, 15, 20, 25, and 30 minutes.\nOn completion of the last recording, subjects inhale a 200 μg dose of salbutamol from a metered inhaler and a further measurement of sGaw mad after 15 minutes. Subjects are also be monitored for coughing and are questioned about the taste of the drug.",
  "data": [
    {"smiles": "CC(C)Cn1c(=O)n(C)c(=O)c2[nH]cnc21", "note": "[IBMX, 3-isobutyl-1-methylxanthine]", "values": [
      {"measurement": "increase in sGaw versus 200 μg salbutamol", "value": "comparable with that produced by salbutamol"},
      {"measurement": "time until sGaw baseline is reached", "value": "one and a half hours"},
      {"measurement": "sGaw above baseline measurement", "setting": "after 30 minutes", "value": 20, "unit": "%"}
    ]}
  ]
}
